Data from ChEMBL document CHEMBL2401728, “An unexpected Dimroth rearrangement leading to annelated thieno[3,2-d][1,2,3]triazolo[1,5-a]pyrimidines with potent antitumor activity” (Eur J Med Chem, 2013).

What was measured:
Assay type in all cases: functional
MDA-MB-468 = experiment: Cytotoxicity against human MDA-MB-468 cells assessed as cellular growth at 10 uM after 48 hrs by SRB assay relative to control
T47D = experiment: Cytotoxicity against human T47D cells assessed as cellular growth at 10 uM after 48 hrs by SRB assay relative to control
MDA-MB-231 = experiment: Cytotoxicity against human MDA-MB-231 cells assessed as cellular growth at 10 uM after 48 hrs by SRB assay relative to control
DU-145 = experiment: Cytotoxicity against human DU145 cells assessed as cellular growth at 10 uM after 48 hrs by SRB assay relative to control
UO-31 = experiment: Cytotoxicity against human UO31 cells assessed as cellular growth at 10 uM after 48 hrs by SRB assay relative to control
PC-3 = experiment: Cytotoxicity against human PC3 cells assessed as cellular growth at 10 uM after 48 hrs by SRB assay relative to control
TK-10 = experiment: Cytotoxicity against human TK10 cells assessed as cellular growth at 10 uM after 48 hrs by SRB assay relative to control
SN12C = experiment: Cytotoxicity against human SN12C cells assessed as cellular growth at 10 uM after 48 hrs by SRB assay relative to control
RXF 393 = experiment: Cytotoxicity against human RXF393 cells assessed as cellular growth at 10 uM after 48 hrs by SRB assay relative to control
CAKI-1 = experiment: Cytotoxicity against human Caki1 cells assessed as cellular growth at 10 uM after 48 hrs by SRB assay relative to control
OVCAR-8 = experiment: Cytotoxicity against human OVCAR8 cells assessed as cellular growth at 10 uM after 48 hrs by SRB assay relative to control
[1] = Cytotoxicity against human NCI-ADR-RES cells assessed as cellular growth at 10 uM after 48 hrs by SRB assay relative to control
OVCAR-5 = experiment: Cytotoxicity against human OVCAR5 cells assessed as cellular growth at 10 uM after 48 hrs by SRB assay relative to control
OVCAR-4 = experiment: Cytotoxicity against human OVCAR4 cells assessed as cellular growth at 10 uM after 48 hrs by SRB assay relative to control
OVCAR-3 = experiment: Cytotoxicity against human OVCAR3 cells assessed as cellular growth at 10 uM after 48 hrs by SRB assay relative to control
UACC-62 = experiment: Cytotoxicity against human UACC62 cells assessed as cellular growth at 10 uM after 48 hrs by SRB assay relative to control
UACC-257 = experiment: Cytotoxicity against human UACC257 cells assessed as cellular growth at 10 uM after 48 hrs by SRB assay relative to control
SK-MEL-5 = experiment: Cytotoxicity against human SK-MEL-5 cells assessed as cellular growth at 10 uM after 48 hrs by SRB assay relative to control
SK-MEL-2 = experiment: Cytotoxicity against human SK-MEL-2 cells assessed as cellular growth at 10 uM after 48 hrs by SRB assay relative to control
MDA-MB-435 = experiment: Cytotoxicity against human MDA-MB-435 cells assessed as cellular growth at 10 uM after 48 hrs by SRB assay relative to control
Malme-3M = experiment: Cytotoxicity against human MALME-3M cells assessed as cellular growth at 10 uM after 48 hrs by SRB assay relative to control
LOX IMVI = experiment: Cytotoxicity against human LOXIMVI cells assessed as cellular growth at 10 uM after 48 hrs by SRB assay relative to control
SNB-75 = experiment: Cytotoxicity against human SNB75 cells assessed as cellular growth at 10 uM after 48 hrs by SRB assay relative to control
SF-539 = experiment: Cytotoxicity against human SF539 cells assessed as cellular growth at 10 uM after 48 hrs by SRB assay relative to control
SF-268 = experiment: Cytotoxicity against human SF268 cells assessed as cellular growth at 10 uM after 48 hrs by SRB assay relative to control
KM12 = experiment: Cytotoxicity against human KM12 cells assessed as cellular growth at 10 uM after 48 hrs by SRB assay relative to control
HT-29 = experiment: Cytotoxicity against human HT-29 cells assessed as cellular growth at 10 uM after 48 hrs by SRB assay relative to control
HCT-15 = experiment: Cytotoxicity against human HCT15 cells assessed as cellular growth at 10 uM after 48 hrs by SRB assay relative to control
HCC 2998 = experiment: Cytotoxicity against human HCC2998 cells assessed as cellular growth at 10 uM after 48 hrs by SRB assay relative to control
COLO 205 = experiment: Cytotoxicity against human COLO205 cells assessed as cellular growth at 10 uM after 48 hrs by SRB assay relative to control
NCI-H522 = experiment: Cytotoxicity against human NCI-H522 cells assessed as cellular growth at 10 uM after 48 hrs by SRB assay relative to control
NCI-H322M = experiment: Cytotoxicity against human NCI-H322M cells assessed as cellular growth at 10 uM after 48 hrs by SRB assay relative to control
NCI-H460 = experiment: Cytotoxicity against human NCI-H460 cells assessed as cellular growth at 10 uM after 48 hrs by SRB assay relative to control
NCI-H23 = experiment: Cytotoxicity against human NCI-H23 cells assessed as cellular growth at 10 uM after 48 hrs by SRB assay relative to control
NCI-H226 = experiment: Cytotoxicity against human NCI-H226 cells assessed as cellular growth at 10 uM after 48 hrs by SRB assay relative to control
HOP-92 = experiment: Cytotoxicity against human HOP92 cells assessed as cellular growth at 10 uM after 48 hrs by SRB assay relative to control
A549 = experiment: Cytotoxicity against human A549 cells assessed as cellular growth at 10 uM after 48 hrs by SRB assay relative to control
RPMI-8226 = experiment: Cytotoxicity against human RPMI8226 cells assessed as cellular growth at 10 uM after 48 hrs by SRB assay relative to control
MOLT-4 = experiment: Cytotoxicity against human MOLT4 cells assessed as cellular growth at 10 uM after 48 hrs by SRB assay relative to control
HL-60(TB) = experiment: Cytotoxicity against human HL-60(TB) cells assessed as cellular growth at 10 uM after 48 hrs by SRB assay relative to control
K562 = experiment: Cytotoxicity against human K562 cells assessed as cellular growth at 10 uM after 48 hrs by SRB assay relative to control
CCRF-CEM = experiment: Cytotoxicity against human CCRF-CEM cells assessed as cellular growth at 10 uM after 48 hrs by SRB assay relative to control

For O=C(O)CCCn1c2c(sc3ccccc32)c(=O)n2nnc(-c3ccccc3)c12, the Activity (MDA-MB-468) was 85.92%, the Activity (T47D) was 78.01% and the Activity (MDA-MB-231) was 92.52%. It also gave an Activity (DU-145) of 94.87%, an Activity (UO-31) of 69.07% and an Activity (PC-3) of 89.28%. For the same compound, the Activity (TK-10) was 98.3%, the Activity (SN12C) was 88.81% and the Activity (RXF 393) was 51.92%. It also gave an Activity (CAKI-1) of 60.48%, an Activity (OVCAR-8) of 77.77% and an Activity [1] of 107.52%. It also gave an Activity (OVCAR-5) of 154.53%, an Activity (OVCAR-4) of 93.19% and an Activity (OVCAR-3) of 103.59%. The Activity (UACC-62) was 75.64%, the Activity (UACC-257) was 111.46% and the Activity (SK-MEL-5) was 79.01%. The Activity (SK-MEL-2) was 107.41%, the Activity (MDA-MB-435) was 89.16% and the Activity (Malme-3M) was 106.11%. It also gave an Activity (LOX IMVI) of 94.14%, an Activity (SNB-75) of 83% and an Activity (SF-539) of 91.17%. For the same compound, the Activity (SF-268) was 91.25%, the Activity (KM12) was 86.08% and the Activity (HT-29) was 92.57%. The Activity (HCT-15) was 66.61%, the Activity (HCC 2998) was 96.03% and the Activity (COLO 205) was 110.27%. It also gave an Activity (NCI-H522) of 34.84%, an Activity (NCI-H322M) of 86.21% and an Activity (NCI-H460) of 74.3%. The Activity (NCI-H23) was 118.45%, the Activity (NCI-H226) was 82.97% and the Activity (HOP-92) was 107.65%. The Activity (A549) was 89.47%, the Activity (RPMI-8226) was 93.76% and the Activity (MOLT-4) was 96.85%. For the same compound, the Activity (HL-60(TB)) was 113.58%, the Activity (K562) was 96.49% and the Activity (CCRF-CEM) was 92.35%.

In the case of O=C(CCCn1c2c(sc3ccccc32)c(=O)n2nnc(-c3ccccc3)c12)NCCc1c[nH]cn1, the Activity (MDA-MB-468) is reported as -93%, the Activity (T47D) is reported as -25.44% and the Activity (MDA-MB-231) is reported as -64%. The Activity (DU-145) was -100%, the Activity (UO-31) was -97% and the Activity (PC-3) was -84.51%. It also gave an Activity (TK-10) of -91%, an Activity (SN12C) of -80% and an Activity (RXF 393) of -70%. The Activity (CAKI-1) was -83.98%, the Activity (OVCAR-8) was -50.58% and the Activity [1] was 8%. For the same compound, the Activity (OVCAR-5) was -91%, the Activity (OVCAR-4) was -92.51% and the Activity (OVCAR-3) was -96%. For the same compound, the Activity (UACC-62) was -76%, the Activity (UACC-257) was -69% and the Activity (SK-MEL-5) was -67.14%. For the same compound, the Activity (SK-MEL-2) was -90.32%, the Activity (MDA-MB-435) was -95.09% and the Activity (Malme-3M) was -76.11%. The Activity (LOX IMVI) was -96%, the Activity (SNB-75) was -89% and the Activity (SF-539) was -97.26%. For the same compound, the Activity (SF-268) was -77%, the Activity (KM12) was -90% and the Activity (HT-29) was -100%. It also gave an Activity (HCT-15) of -75%, an Activity (HCC 2998) of 25.66% and an Activity (COLO 205) of -77%. The Activity (NCI-H522) was -95.79%, the Activity (NCI-H322M) was -34.11% and the Activity (NCI-H460) was -93.2%. For the same compound, the Activity (NCI-H23) was -54%, the Activity (NCI-H226) was -14% and the Activity (HOP-92) was -75.7%. It also gave an Activity (A549) of -75.35%, an Activity (RPMI-8226) of -4.25% and an Activity (MOLT-4) of 79.44%. The Activity (HL-60(TB)) was -29%, the Activity (K562) was -70% and the Activity (CCRF-CEM) was -58%.

CN1CCN(CCCn2c3c(sc4ncccc43)c(=O)n3nnc(-c4ccccc4)c23)CC1 gave an Activity (MDA-MB-468) of -94%, an Activity (T47D) of 103% and an Activity (MDA-MB-231) of -83.53%. The Activity (DU-145) was -74%, the Activity (UO-31) was -90.79% and the Activity (PC-3) was -3.82%. The Activity (TK-10) was -88%, the Activity (SN12C) was -55% and the Activity (RXF 393) was -93%. The Activity (CAKI-1) was -79%, the Activity (OVCAR-8) was -48.18% and the Activity [1] was -29%. The Activity (OVCAR-5) was -15%, the Activity (OVCAR-4) was -65% and the Activity (OVCAR-3) was -83.15%. It also gave an Activity (UACC-62) of 85%, an Activity (UACC-257) of -87% and an Activity (SK-MEL-5) of -98%. It also gave an Activity (SK-MEL-2) of 99.31%, an Activity (MDA-MB-435) of -81% and an Activity (Malme-3M) of -82%. The Activity (LOX IMVI) was -96.04%, the Activity (SNB-75) was 48% and the Activity (SF-539) was -95.99%. The Activity (SF-268) was -77%, the Activity (KM12) was -79% and the Activity (HT-29) was -46.19%. The Activity (HCT-15) was -63%, the Activity (HCC 2998) was -87% and the Activity (COLO 205) was -82%. The Activity (NCI-H522) was -76%, the Activity (NCI-H322M) was -76% and the Activity (NCI-H460) was -70.68%. For the same compound, the Activity (NCI-H23) was -39%, the Activity (NCI-H226) was 71% and the Activity (HOP-92) was 42%. For the same compound, the Activity (A549) was -74.7%, the Activity (RPMI-8226) was -48% and the Activity (MOLT-4) was -50%. For the same compound, the Activity (HL-60(TB)) was -56%, the Activity (K562) was -41% and the Activity (CCRF-CEM) was -45%.
